Measurements taken from patent publication EP0353821B1, “Antipsychotic 3-piperazinyl-benzazole derivatives” (JANSSEN PHARMACEUTICA N.V., priority 1988, dated 1990).
Read-outs that look alike come from different tables or passages of the source.

Experiments:
[1] = system: apomorphine-induced phenomena: agitation and stereotypic chewing; experiment: Combined apomorphine-, tryptamine- and norepinephrine test in rats: apomorphine (APO) part; format: in vivo, adult male Wistar rats; conditions: Rattus norvegicus, read-out: Combined test in rats, ED₅₀ in mg/kg (APO)
Description: (§1) The combined apomorphine (APO)-, tryptamine (TRY)- and norepinephrine (NOR) test in rats.
(§2) The experimental animals used in this test were adult male Wistar rats (weight 240 ± 10g). After an overnight fast the animals were treated subcutaneously or orally with an aqueous solution of the compound under investigation (1ml/100g body weight) (time = zero) and put in isolated observation cages. […] At the end of this 1 hour period (time = 90 minutes) the same animals were injected intravenously with 40 mg/kg of tryptamine (TRY) and the presence of the typical tryptamine-induced bilateral tonic seizures and hyperaemia of the ears was noted. Two hours after pretreatment (time = 120 minutes) finally, the same animals were challenged with 1.25 mg/kg intravenously of norephinephrine (NOR) and possible mortality was looked for up to 60 minutes later.
(§3) The table 3 gives the ED₅₀-values of a number of the compounds under consideration. As used herein, the ED₅₀-value represents the dose which protects 50% of the animals from apomorphine-, tryptamine- or norepinephrine-induced phenomena.

[2] = system: norepinephrine-induced phenomena (mortality); experiment: Combined apomorphine-, tryptamine- and norepinephrine test in rats: norepinephrine (NOR) part; format: in vivo, adult male Wistar rats; conditions: Rattus norvegicus; compound subcutaneously or orally; 1.25 mg/kg norepinephrine i.v. at 120 minutes; mortality up to 60 minutes later; dose which protects 50% of the animals; read-out: Combined test in rats; ED₅₀ in mg/kg (NOR)
Description: as §1, §2, §3

[3] = system: tryptamine-induced bilateral tonic seizures and hyperaemia of the ears; experiment: Combined apomorphine-, tryptamine- and norepinephrine test in rats: tryptamine (TRY) part; format: in vivo, adult male Wistar rats; conditions: Rattus norvegicus, 1.5 h, compound subcutaneously or orally, 40 mg/kg tryptamine i.v. at 90 minutes, dose which protects 50% of the animals, read-out: Combined test in rats
Description: as §1, §2, §3

apomorphine (emesis) = experiment: The apomorphine test in dogs (APO-dog); format: in vivo, beagle dogs; conditions: Canis lupus familiaris, 1 h; compound subcutaneously or orally; 0.31 mg/kg (s.c.) apomorphine one hour thereafter; dose which protects 50% of the animals from emesis; read-out: (APO)-dog test, ED₅₀ in mg/kg
Description: The apomorphine test in dogs (APO-dog).
The method used is described by P.A.J. Janssen and C.J.E. Niemegeers in Arzneim.-Forsch. (Drug Res.), 9, 765-767 (1959). The compounds listed in table 3 were administered subcutaneously or orally to beagle dogs at different doses and the animals were challenged one hour thereafter with a standard dose of 0.31 mg/kg (s.c.) of apomorphine.
The table 3 gives the ED₅₀-values of a number of the compounds under consideration. As used herein, the ED₅₀ value represents the dose which protects 50% of the animals from emesis.

[4] = compound subcutaneously or orally, 1.25 mg/kg apomorphine i.v. at 30 minutes, observed 1 hour, dose which protects 50% of the animals
[5] = bilateral tonic seizures, ED₅₀ in mg/kg (TRY)-convulsions
[6] = hyperaemia of the ears, ED₅₀ in mg/kg (TRY)-hyperaemia

Structure (SMILES) | ED50 [1, 4] [mg/kg] | ED50 [2] [mg/kg] | ED50 [3, 5] [mg/kg] | ED50 [3, 6] [mg/kg] | ED50 (apomorphine (emesis)) [mg/kg] | ED50 [1] [mg/kg]
Cc1nc2n(c(=O)c1CCN1CCN(c3noc4ccccc34)CC1)CCS2 [Compound 27] | 0.03 | 0.31 | 0.03 | 0.00125 | 0.06 | –
Cc1nc2sccn2c(=O)c1CCN1CCN(c2noc3cc(F)ccc23)CC1 [Compound 34] | 0.02 | 0.31 | 0.08 | < 0.01 | 0.015 | –
Cc1nc2sccn2c(=O)c1CCN1CCN(c2noc3ccccc23)CC1 [Compound 31] | – | 1.25 | 0.02 | 0.00031 | 0.03 | 0.03
Cc1nc2n(c(=O)c1CCN1CCN(c3noc4cc(F)ccc34)CC1)CCCS2 [Compound 25] | 0.08 | 0.31 | 0.08 | ≤ 0.01 | 0.06 | –
Cc1nc2ccccn2c(=O)c1CCN1CCN(c2n[nH]c3cc(F)ccc23)CC1 [Compound 16] | 0.08 | – | 0.08 | 0.005 | < 0.01 | –
Cc1nc2n(c(=O)c1CCN1CCN(c3noc4cc(F)ccc34)CC1)CCCC2 [Compound 20] | 0.08 | – | 0.08 | 0.005 | 0.015 | –
Cc1nc2scc(C)n2c(=O)c1CCN1CCN(c2n[nH]c3ccccc23)CC1 [Compound 65] | – | 1.25 | 0.04 | 0.00063 | – | 0.08
Cc1nc2c(C)cccn2c(=O)c1CCN1CCN(c2noc3ccccc23)CC1 [Compound 45] | – | 1.25 | 0.08 | 0.02 | > 0.01 | 0.04
Cc1nc2ccccn2c(=O)c1CCN1CCN(c2noc3cc(F)ccc23)CC1 [Compound 15] | 0.04 | 0.31 | 0.08 | 0.005 | 0.015 | –
Cc1nc2n(c(=O)c1CCN1CCN(c3nsc4ccccc34)CC1)CCS2 [Compound 26] | 0.08 | 5 | 0.02 | 0.00125 | 0.03 | –
Cc1nc2ccccn2c(=O)c1CCN1CCN(c2nsc3ccccc23)CC1 [Compound 11] | – | 1.25 | 0.08 | 0.00031 | 0.45 | 0.08
Cc1nc2n(c(=O)c1CCN1CCN(c3nsc4ccccc34)CC1)CCCC2C (stereo not drawn) [Compound 55] | 0.04 | 10 | 0.04 | 0.0025 | > 0.016 | –
Cc1nc2sccn2c(=O)c1CCN1CCN(c2n[nH]c3cc(F)ccc23)CC1 [Compound 63] | 0.02 | 0.16 | 0.02 | 0.00125 | 0.001 | –
Cc1nc2ccccn2c(=O)c1CCN1CCN(c2n[nH]c3ccccc23)CC1 [Compound 41] | – | 1.25 | 0.04 | 0.005 | 0.03 | 0.08
Cc1nc2scc(C)n2c(=O)c1CCN1CCN(c2noc3cc(F)ccc23)CC1 [Compound 39] | 0.08 | 0.31 | 0.04 | < 0.04 | 0.03 | –
Cc1nc2sccn2c(=O)c1CCN1CCN(c2n[nH]c3ccccc23)CC1 [Compound 64] | – | 1.25 | 0.08 | 0.005 | – | 0.08
Cc1nc2n(c(=O)c1CCN1CCN(c3n[nH]c4cc(F)ccc34)CC1)CCCC2C (stereo not drawn) [Compound 56] | 0.08 | 0.16 | 0.08 | 0.005 | 0.00045 | –
Cc1nc2scc(C)n2c(=O)c1CCN1CCN(c2n[nH]c3cc(F)ccc23)CC1 [Compound 40] | 0.02 | 0.08 | 0.02 | 0.00031 | 0.0025 | –
Cc1nc2n(c(=O)c1CCN1CCN(c3noc4cc(F)ccc34)CC1)CCS2 [Compound 3, 6-[2-[4-(6-fluoro-1,2-benzisoxazol-3-yl)-1-piperazinyl]ethyl]-2,3-dihydro-7-methyl-5H-thiazolo[3,2-a]pyrimidin-5-one] | 0.02 | 0.08 | 0.005 | 0.00125 | 0.07 | –
Cc1nc2c(C)cccn2c(=O)c1CCN1CCN(c2n[nH]c3cc(F)ccc23)CC1 [Compound 47] | 0.04 | 0.08 | 0.08 | 0.000125 | 0.001 | –
